# Data from US20230138395A1, “PHARMACEUTICAL COMPOSITIONS OF A THERAPEUTIC POLYENE MACROLIDE AND METHODS OF THEIR USE” (priority 2020, published 2023).
# Several values for one entry are separate records, joined by “and”; a condition that tells them apart may be missing. Identical values can stand only once.
# Columns and labels:
# [1] = system: Penicillium strains; test: MIC testing (CLSI M38-A2); type: cell-based, Penicillium spp.; conditions: Penicillium
# [2] = system: Penicillium strains; test: MFC determination; type: cell-based, Penicillium spp.
# [3] = system: C. albicans SC5314; test: In vitro activity (MFC) against the infecting strain, Example 18; type: cell-based, Candida albicans; conditions: Candida albicans, read-out: MFC
# [4] = system: individual Aspergillus spp. (Table 12, species not named); test: MFC determination, Table 12; type: cell-based; conditions: Aspergillus sp. of Table 12
# [5] = system: Candida albicans; test: MFC determination; type: cell-based
# [6] = system: Fusarium strains; test: MFC determination, Table 17; type: cell-based, Fusarium spp.; conditions: Fusarium strains (Table 17)
# [7] = system: A. fumigatus AF91; test: In vitro activity (MFC) against the infecting strain, Example 17; type: cell-based, Aspergillus fumigatus; conditions: Aspergillus fumigatus, read-out: MFC
# Description: Minimum Fungicidal Concentration: MFC determinations were performed according to the modifications previously described by Canton et al., Diagn. Microbiol. Infect. Dis., 45:203-206, 2003, and Ghannoum and Isham, Infectious Diseases in Clinical Practice, 15(4):250-253, 2007.
# Specifically, the total contents of each clear well from the MIC assay were subcultured onto potato dextrose agar. To avoid antifungal carryover, the aliquots were allowed to soak into the agar and then were streaked for isolation once dry, thus removing the cells from the drug source. Fungicidal activity is defined as ≥99.9% reduction in the number of colony forming units (CFU)/ml from the starting inoculum count, while fungistatic activity is defined as <99.9% reduction. […] MIC and MFC values are considered to be equivalent if they are within 2 dilutions.
# [8] = system: C. parapsilosis; test: MFC determination; type: cell-based
# [9] = system: all Aspergillus strains tested; test: MFC determination, summary; type: cell-based
# [10] = system: Aspergillus fumigatus AF91; test: Disseminated Aspergillosis in immunocompromised murine model (CD-1 mice): tissue fungal burden; conditions: Experiment I; 7.5 mg/kg i.v., 7 days
# [11] = system: C. parapsilosis; test: MIC testing (CLSI M27-A3); type: cell-based; design: MIC: unit not given beside the values
# [12] = system: A. fumigatus AF91; test: In vitro activity (MIC) against the infecting strain, Example 17; type: cell-based, Aspergillus fumigatus; conditions: Aspergillus fumigatus, read-out: MIC
# Description: Minimum Inhibitory Concentration: MIC testing was performed according to the Clinical and Laboratory Standards Institute (CLSI) M27-A3 and M38-A2 standards for the susceptibility testing of yeasts and filamentous fungi, respectively (Cryptococcus isolates were incubated for 72 h). For yeast strains, the incubation temperature and time were 35° C. and 24-48 h, respectively, and the inoculum size was 0.5-2.5×10^3 CFU/ml. For filamentous strains, the inoculum size was 0.4-5×10^4 CFU/ml, and the incubation time was strain and drug specific. RPMI 1640 was the test medium throughout, with the exception of the use of YNB for Cryptococcus. Inhibition endpoints for compound 1A were recorded at 50% and 100% after both 24 h and 48 h incubation; caspofungin results against Aspergillus strains were read as minimum effective concentrations (MEC), the lowest concentration that leads to small, rounded, compact growth as compared to the confluent growth of the control.
# [13] = system: C. krusei strains; test: MIC testing (CLSI M27-A3); type: cell-based
# [14] = system: individual Aspergillus spp. (Table 15, species not named); test: MFC determination, Table 15; type: cell-based; conditions: Aspergillus sp. of Table 15
# [15] = system: Cr. neoformans strains; test: MFC determination; type: cell-based, Cryptococcus neoformans; conditions: Cr. neoformans
# [16] = system: individual Aspergillus spp. (Table 15, species not named); test: MIC testing (CLSI M38-A2), Table 15; type: cell-based; conditions: Aspergillus sp. of Table 15, caspofungin read as MEC
# [17] = system: individual Aspergillus spp. (Table 13, species not given); test: MIC testing (CLSI M38-A2), Table 13; type: cell-based; conditions: Aspergillus sp. of Table 13, caspofungin read as MEC
# [18] = system: C. tropicalis; test: MFC determination; type: cell-based
# [19] = system: Candida albicans; test: MIC testing (CLSI M27-A3); type: cell-based; design: MIC: unit not given beside the values
# [20] = system: all Aspergillus strains tested; test: MIC testing (CLSI M38-A2), summary; type: cell-based; conditions: caspofungin read as MEC
# [21] = system: individual Aspergillus spp. (Table 12, species not named); test: MIC testing (CLSI M38-A2), Table 12; type: cell-based; conditions: Aspergillus sp. of Table 12, caspofungin read as MEC
# [22] = system: Fusarium strains (Table 18); test: MIC testing (CLSI M38-A2), Table 18; type: cell-based, Fusarium spp.
# [23] = Fluconazole-susceptible C. albicans n = 13, in µg/mL
compound,measurement,setting,value
"C[C@@H](c1ncncc1F)[C@](O)(Cn1cncn1)c1ccc(F)cc1F [Voriconazole, voriconazole]",MIC50,[1]; inhibits 50% of strains,4 µg/mL
same,MIC90,[1]; inhibits 90% of strains,> 32 µg/mL
same,MFC50,[2]; kills 50% of strains,> 32 µg/mL
same,MFC90,[2]; kills 90% of strains,> 32 µg/mL
same,MFC,[3],> 32 µg/mL
same,MFC50,[4]; kills 50% of strains,4 µg/mL
same,MFC90,[4]; kills 90% of strains,> 16 µg/mL
same,MFC Range,[5]; [23],>32
same,MFC50,"[5]; Fluconazole-susceptible C. albicans n = 13, kills 50% of strains",> 32 µg/mL
same,MFC90,"[5]; Fluconazole-susceptible C. albicans n = 13, kills 90% of strains",> 32 µg/mL
same,MFC,"[5]; individual C. albicans strain with elevated MICs to non-polyene comparators (Table 22), listed as Vor",16 and >32 (2×)
same,MFC50,[6]; kills 50% of strains,32 µg/mL
same,MFC90,[6]; kills 90% of strains,> 32 µg/mL
same,MFC,[7],> 8 µg/mL
same,MFC50,"[8]; C. parapsilosis, kills 50% of strains",> 32 µg/mL
same,MFC90,"[8]; C. parapsilosis, kills 90% of strains",> 32 µg/mL
same,MFC,"[8]; individual C. parapsilosis strain with elevated MICs to non-polyene comparators (Table 22), in µg/mL",>32
same,MFC50,[9]; kills 50% of strains,> 8 µg/mL
same,MFC90,[9]; kills 90% of strains,> 8 µg/mL
same,"Kidney tissue fungal burden, Mean log CFUs ± the standard deviation",[10],3.19 ± 0.59 log CFUs
same,"Lung tissue fungal burden, Mean log CFUs ± the standard deviation",[10],3.38 ± 0.45 log CFUs
same,MIC50,"[11]; C. parapsilosis, inhibits 50% of strains",< 0.06 µg/mL
same,MIC90,"[11]; C. parapsilosis, inhibits 90% of strains",0.06 µg/mL
same,MIC,"[11]; individual C. parapsilosis strain with elevated MICs to non-polyene comparators (Table 22), listed as Vor",0.06 (2×) and >32
same,MIC,[12],1 µg/mL
same,MIC Range,"[13]; C. krusei strains, in µg/mL",<0.06-0.5
same,MIC50,"[13]; C. krusei, inhibits 50% of strains",0.125 µg/mL
same,MIC90,"[13]; C. krusei, inhibits 90% of strains",0.25 µg/mL
same,MFC50,[14]; kills 50% of strains,> 4 µg/mL
same,MFC90,[14]; kills 90% of strains,> 4 µg/mL
same,MFC50,[15]; kills 50% of strains,> 0.5 µg/mL
same,MFC90,[15]; kills 90% of strains,> 0.5 µg/mL
same,MIC Range,[16]; in µg/mL,0.25-2
same,MIC50,[16]; inhibits 50% of strains,0.5 µg/mL
same,MIC90,[16]; inhibits 90% of strains,0.5 µg/mL
same,MIC Range,[17]; in µg/mL,0.25-2
same,MIC50,[17]; inhibits 50% of strains,0.5 µg/mL
same,MIC90,[17]; inhibits 90% of strains,1 µg/mL
same,MFC Range,"[18]; C. tropicalis strains, in µg/mL",>32
same,MFC50,"[18]; C. tropicalis, kills 50% of strains",> 32 µg/mL
same,MFC90,"[18]; C. tropicalis, kills 90% of strains",> 32 µg/mL
same,MIC Range,[19]; [23],<0.06-0.06
same,MIC50,"[19]; Fluconazole-susceptible C. albicans n = 13, inhibits 50% of strains",0.6 µg/mL
same,MIC90,"[19]; Fluconazole-susceptible C. albicans n = 13, inhibits 90% of strains",0.06 µg/mL
same,MIC,"[19]; individual C. albicans strain with elevated MICs to non-polyene comparators (Table 22), listed as Vor, in µg/mL",>0.06 and 0.5 and 32
same,MIC Range,[20]; in µg/mL,0.06-8
same,MIC50,[20]; inhibits 50% of strains,0.5 µg/mL
same,MIC90,[20]; inhibits 90% of strains,2 µg/mL
same,MIC Range,[21]; in µg/mL,0.25-4
same,MIC50,[21]; inhibits 50% of strains,1 µg/mL
same,MIC90,[21]; inhibits 90% of strains,2 µg/mL
same,MIC50,[22]; inhibits 50% of strains,16 µg/mL
same,MIC90,[22]; inhibits 90% of strains,> 16 µg/mL
